# Legend:
# [1] = tested on: established CD4+ T cell clones (Th0-like); assay: Cytokine production (ELISA) by established CD4+ T cell clones stimulated with insolubilized anti-CD3 mAb; type: cell-based, human; conditions: for levels of IFN-?: 12 CD4+ clones, insolubilized anti-CD3 mAb, p<0.03 vs absence of RLX (3.6±0.98 ng/ml)
# Protocol: To generate T cell clones, PBMC from normal subjects were seeded under limiting dilution conditions (0.3 cell/well) in six round-bottom microwell plates containing […] (6000 rad) allogeneic PBMC (as feeder cells) and PHA (1% vol/vol) in a final volume of 0.2 ml complete medium supplemented with 20 U/ml IL-2 and 10% FCS. Growing microcultures where then supplemented, at weekly intervals, with 20 U/ml IL-2 and 10^5 irradiated feeder cells. The phenotype distribution of T cell clones was assessed by flow cytometer-analysis.
# (§1) To quantitate cytokine production in supernatants of TT-specific shortterm T cell lines and established T cell clones, […] were cultured in the presence of 20 ng/ml PMA plus 100 ng/ml anti-CD3 mAb. After 36 h culture, cell-free supernatants were collected, filtered, and stored in aliquots at −70° C. until used. Determination of IFN-? was performed by a commercial ELISA (Biosource International, Camarill, Calif.). […] Values of the cytokine content 5 SD over those of control supernatants obtained by stimulation of irradiated feeder cells alone were regarded as positive.
# The two curves shown in FIG. 2 relate to two CD4^+ T cell clones stimulated with immobilised anti-CD3 antibody in the presence or in the absence of different concentrations of RLX for 36 h. […] Total RNA was extracted as described herein after. 1?g of RNA was reversed transcribed and cDNA were amplified and then subjected to PCR amplification with primers for IFN-? and IL4 as discussed more in detail below.
# To provide unequivocal evidence of the direct effect of RLX on T cells, the activity of RLX on the IFN-? mRNA expression and IFN-? production by established T cell clones was examined. To this end, 12 CD4^+ T cells clones showing a Th0-like profile (production of both IFN-? and IL-4) were cultured in the absence of any other cell type and stimulated with insolubilized anti-CD3 mAb in the presence or absence of RLX. […] The levels of IL-4 produced by the same CD4+T cell clones were not altered by the presence of RLX.
# [2] = tested on: adherent cell-enriched fractions of PBMC (monocytes/APC); assay: IL-12 and IFN-? release by adherent cell-enriched fractions of PBMC stimulated with TT; type: cell-based, human; conditions: stimulated 5 days with TT, absence vs presence of RLX
# [3] = tested on: TT-specific short-term T cell lines from PBMC; assay: Cytokine production by TT-specific short-term T cell lines expanded with or without RLX; type: cell-based, human
# Protocol: TT-specific short-term T cell lines were generated from PBMC of TT-vaccinated normal donors according to a technique described in M. P. Piccinni et al <<Progesterone favors the development of human T helper cells producing Th2-type cytokines and promotes both IL-4 production and membrane CD30 expression in established TH1 cell clones>>, in J. Immmunol., 1995, 155: 128-133.
# Briefly, 10^5 PBMC in 2 ml RPMI 1640 medium supplemented with 2 mM L-glutamine, 2×10^−5M 2-ME and 5% human serum (complete medium) were stimulated in 24-well flat-bottom plates for 5 days with the antigen (0.2?g/ml TT) in the absence or in the presence of RLX at concentrations of 10^−10, 10^−9, 10^−8, 10^−7 and 10^−6 M. Human IL-2 (20 U/ml) was then added and cultures continued for another 9 days. Viable T blasts were resuspended in complete medium and tested for their antigen specificity. To this end, 2×10^4 T blasts were seeded in microplates and cocultured for 48 h with irradiated (6000 rad) autologous PBMC (5×10^4) in the presence of medium alone or 0.1 ? g/ml TT, respectively. After a 16-h pulse with 0.5 ?Ci [^3H]thimidine, cultures where harvested and radioactivity measured by liquid scintillation. The phenotype distribution of TT-specific T cells was assessed by flow cytometer analysis.
# as §1
# On the other hand, no effect of RLX dilution can be observed on the production of IL-4.
# sensitized guinea pigs = conditions: RLX treatment; cited from earlier work
# PSS patients = conditions: cited from earlier work
# CD4+ T cell clone = assay: Competitive PCR for IFN-? mRNA in a CD4+ T cell clone; type: cell-based, human
# Protocol: Competitive PCRfor IFN-?was performed using a competitorcontrol fragment (PCR MIMIC; Clontech Laboratories Inc. Palo Alto, Calif., USA) according to the manufacturer's instructions. PCR MIMIC was used together with sample cDNA in the reaction mixture; sample and control cDNA were amplified with the same primers, so they competed for the same primers in the same reaction, but were distinguished on gel electrophoresis by differences in length. By knowing the amount of PCR MIMIC added to the reaction, the amount of target cDNA and therefore the initial mRNA levels could be determined. Each sample (and competitor fragment) was subjected to 25 cycles of amplification as described above.
# The intensity of the bands for ?-actin obtained by RT-PCR was measured in all the samples to confirm that the same quantities of total RNA were reverse transcribed. In addition, the intensity of the bands for IFN-? obtained by PCR amplification (MIMIC and samples) and by Southern blot was also measured. A CCD video camera C3077/01 (Hamamatsu Photonics, Tokyo, Japan) interfaced with an Apple Macintosh personal computer was used. Acquisition of images was obtained with Imagequest IQBase software (Hamamatsu Photonics). Image processing and analysis was performed with the free-share software IMAGE (National Institutes of Health, Research Services, Branch NIMH, version 1.28).
# [4] = tested on: established CD4+ T cell clones; assay: RT-PCR of IFN-? and IL-4 mRNA in established CD4+ T cell clones; type: cell-based, human; conditions: two clones, 10^−8 M RLX vs absence
# Protocol: To induce cytokine mRNA expression in established T cell clones for RNA extraction 2×10^5 T blasts from each clone were cultured with insolubilized anti-CD3 (1?g/ml). After 12 h, pellets were washed four times with PBS at pH 7.2 and kept frozen until used. Total RNA was extracted using Ultraspec RNA Isolation kit (Biotex Laboratories, Inc. Houston, Tex., USA). […] Following extraction, 1 ?g of RNA was reverse transcribed by M-MLV reverse transcriptase (Gibco-BRL, Gaithersburg, Md., USA). All cDNA were amplified with primers for ?-actin to test the quality of cDNA and then subjected to PCR amplification with primers for IFN-? and IL-4. In each PCR reaction a positive control and a negative control (without cDNA as template to exclude contamination) were included. PCR analysis was carried out in a DNA thermal cycler (Idaho Technology, Idaho Falls, ID, USA). […] The size of the amplified products was evaluated by comparison with molecular weight markers run in parallel lanes.
# The intensity of the bands for ?-actin obtained by RT-PCR was measured in all the samples to confirm that the same quantities of total RNA were reverse transcribed. In addition, the intensity of the bands for IFN-? obtained by PCR amplification (MIMIC and samples) and by Southern blot was also measured. […]
# [5] = FIG. 1, mean values, cultures with antigen plus 200 U/ml IL-12 as printed
# [6] = expanded in presence vs absence of RLX
substance,measurement,setting,value
relaxin [RLX],levels of IFN-?,[1]; 10^−7 M RLX,5.87±1.63 ng/m
same,levels of IFN-?,[1]; 10^−8 M RLX,8.20 ± 2.27 ng/mL
same,levels of IL-4,"[1]; same 12 CD4+ T cell clones, presence vs absence of RLX",not altered
same,concentration of IFN-? in supernatants,[2],no significant differences
same,concentration of IL-12 in supernatants,[2],no significant differences
same,production of IFN-? in TT-specific T cell lines as a function of RLX concentration (FIG. 1),[3]; [5],increases with the concentration of RLX
same,production of IL-4 in TT-specific T cell lines as a function of RLX concentration (FIG. 1),[3]; [5],no effect
same,production of IFN-? in TT-specific T cells,"[3]; expanded in presence of RLX at 10^−9, 10-8 and 10^−7 M vs absence of RLX",significantly higher
same,production of IL-4 in TT-specific T cells,[3]; [6],no significant differences
same,production of IL-5 in TT-specific T cells,[3]; [6],no significant differences
same,production of IL-6 in TT-specific T cells,[3]; [6],no significant differences
same,allergic asthma-like reaction,sensitized guinea pigs,reduced
same,bronchial hyperresponsiveness,sensitized guinea pigs,reduced
same,total skin score,"PSS patients; PSS patients, control phase trial",improvement
same,tolerability,PSS patients; RLX treatment compared with administration of IFN-?,better tolerated
same,"increase of IFN-? mRNA (competitive PCR, image analysis)","CD4+ T cell clone; T cell clone no. 2, 10^−8 M RLX vs absence",approximately tenfold increase
same,IFN-? mRNA amount (competitive PCR),"CD4+ T cell clone; T cell clone no. 2, presence of 10^−8 M RLX, absence of RLX 4.1×10^−3",5×10^−2 attomol/? I
same,IFN-? mRNA expression (RT-PCR),[4],higher levels
same,IL-4 mRNA levels (RT-PCR),[4],the same

# Source: US20050180968A1, “Use of relaxin for stimulating the development of activated human T cells into TH1-like effectors” (priority 2000, published 2005)
